Test [1] concerns the target T1, EcA2PfB2 (Plasmodium falciparum, UniProt Q8I528). The test can be described thus: biochemical. The test is classed as biochemical, Plasmodium falciparum GyrB with Escherichia coli GyrA. The settings on record: for Sensitivity of hybrid complex to known bacterial gyrase inhibitors: supercoiling, Fig. S1D and E. The method, then:
(§1) A supercoiling assay was utilized to test a library of compounds previously selected for binding to EcA2PfB2 but not EcGyr. The library was a kind gift from Yasumitsu Kondoh, RIKEN. The EcGyr complex was used as a control allowing selection for specific compounds that target PfB. Supercoiling assays were carried out in a buffer consisting of 35 mM Tris-HCl (pH 7.5), 24 mM KCl, 4 mM MgCl2, 2 mM DTT, 1.8 mM spermidine, 1 mM ATP, 6.5% (wt/vol) glycerol, and 0.1 mg/ml bovine serum albumin (BSA). The hybrid (EcA2PfB2) complex or EcGyr complex was formed in the storage buffer (50 mM Tris-HCl [pH 7.5], 100 mM KCl, 10% [wt/vol] glycerol, 1 mM EDTA, 2 mM DTT). In a 30-μl reaction, the gyrase complex and 0.5 μg of pBR322 relaxed DNA (Inspiralis, United Kingdom) were assembled on ice and incubated at 37°C for 30 min. The reaction was then stopped by adding an equal volume of stop solution (40% sucrose, 100 mM Tris-HCl [pH 7.5], 1 mM EDTA, 0.5 mg/ml bromophenol blue) and extracted by mixing with 30 μl chloroform-isoamyl alcohol (24:1). The samples were centrifuged at 14,000 × g for 1 min, and the aqueous phase was collected and loaded onto a 1% 1× Tris-acetate-EDTA (TAE) agarose gel. The DNA products were resolved by electrophoresis at 80 V for 120 min and visualized by UV irradiation. The images were then analyzed using ImageJ v.1.47 to obtain the intensity of the supercoiled DNA band. Gyrase with 1% dimethyl sulfoxide (DMSO) was used as the control. The percentage of supercoiled DNA (% SC) was normalized using samples with gyrase in the absence of inhibitor as the full supercoiling control and was plotted against PPG concentration. Data were fitted to the equation % SC = ae^b^[PPG], where a and b are function parameters, using OriginLab Origin (Pro) v.2020b.

Test [2] deals with T2, EcGyr (Escherichia coli, UniProt P0AES4+P0AES6).
T2 construct: made in house
As to the kind of experiment: DNA supercoiling assay, E. coli gyrase. The conditions noted are these: relaxed pBR322, 37°C 30 min, 1% DMSO, n = 3; read-out: IC50 supercoiling inhibitory activity, EcGyr. The test is classed as biochemical. The method, then: as §1, with “Gyrase with 1% dimethyl sulfoxide (DMSO) was used as the control. The percentage of supercoiled DNA (% SC) was normalized using samples with gyrase in the absence of inhibitor as the full supercoiling control and was plotted against PPG concentration. Data were fitted to the equation % SC = ae^b^[PPG], where a and b are function parameters, using OriginLab Origin (Pro) v.2020b.” left out

The subject of test [3] is P. falciparum 3D7. The conditions noted are these: growth in vitro; ref [25], [33]; cited from earlier work.
The target in test [4] is T3, PfB (Plasmodium falciparum, UniProt Q8I528). The test can be described thus: ATP hydrolysis assay (malachite green), PfB. The test is classed as biochemical. The settings on record: 1 μM PfB. The method, then: (§2) The ATP hydrolysis reaction was performed as follows. Enzyme was incubated in the assay buffer (50 mM Tris-HCl [pH 7.5], 125 mM KCl, 1 mM EDTA, 5 mM MgCl2, 5 mM DTT, 10% glycerol) with test compounds at various concentrations, 1 mM ATP, and 10.5 nM linear pBR322 DNA for 30 min at room temperature. The protein concentrations used in the assay were as follows: 1 μM PfB, 0.5 μM EcA2PfB2, and 100 nM EcGyr. A malachite green assay kit (Sigma-Aldrich) was used to measure the released phosphate in the reaction. In brief, malachite green reagent was added to the reaction mixture, and the mixture was further incubated for 10 min. The formed color was measured at 620 nm using a plate reader (SpectraMAX190; Molecular Devices). The amount of released phosphate was calculated based on a calibration curve covering a linear range of 50 to 250 pmol using eight concentrations, which was prepared for each measurement independently. Experiments were carried out in triplicate.

In test [5] the test system is P. falciparum 3D7. As to the kind of experiment: P. falciparum growth inhibition in vitro (SYBR green). The test is classed as cell-based. The conditions noted are these: Plasmodium falciparum, 96 h of treatment. The method, then: Tests on parasites were performed by Anti-infectives Screening Core Services at NYU School of Medicine based on previously published protocol ([44]). P. falciparum strain 3D7 was used for all determinations. Using 96-well plates, 100 μl of P. falciparum growth medium (RPMI 1640, 25 mM HEPES, 0.1 mg/ml gentamicin, 0.05 mg/liter hypoxanthine [pH 6.75]), supplemented with 0.25% sodium bicarbonate and 0.5% Albumax II (Invitrogen), was added to each well. A 10 mM stock of PPG in DMSO was then serially diluted in triplicate. DMSO at the highest concentration used (0.5%) was tested in parallel as a control. Asynchronous P. falciparum in a 100-μl volume was then added to each well at 0.25% late-stage parasitemia with 5% hematocrit, as well as controls (medium, red blood cells, P. falciparum, or P. falciparum with 2 μM chloroquine). The plates were placed in a sealed chamber and maintained under atmospheric conditions of 5% oxygen, 5% carbon dioxide, and 90% nitrogen at 37°C for 96 h. To determine the cell viability, a SYBR green assay for rapid assessment was performed.
After incubation, plates were placed at −80°C for 24 h. The plates were then thawed at 37°C for 4 h. Once thawed, 100 μl of from each resuspended well was transferred into a black, 96-well plate. […] Plates were analyzed on a fluorescence plate reader (Victor) at excitation and emission wavelengths of 485 and 530 nm, respectively. […]

Test [6] deals with T2, EcGyr. The test can be described thus: ATP hydrolysis assay (malachite green), EcGyr. It is filed as biochemical. The conditions noted are these: 100 nM EcGyr. The method, then:
as §2

Test [7] deals with T1, EcA2PfB2. As to the kind of experiment: EMSA DNA binding, hybrid gyrase. Also noted: species or system Plasmodium falciparum GyrB with Escherichia coli GyrA. The settings on record: 147 bp DNA, 200 nM complex. On the procedure: (§3) DNA binding assays were carried out using electrophoretic mobility shift assay (EMSA) with 147 bp dsDNA (based on the preferred gyrase cleavage site from plasmid pBR322) ([31]). In brief, 20 nM DNA was mixed with 200 nM reconstituted complex (hybrid or EcGyr) or 1 μM PfB in an assay buffer (30 mM Tris-HCl [pH 7.5], 75 mM KCl, 2 mM MgCl2, 6% glycerol, 1 mM DTT) and PPG for 1 h at room temperature. The samples were resolved in a 5% polyacrylamide gel in TBM buffer (90 mM Tris-borate, pH 7.5, 4 mM MgCl2) for 1 h at 80 V. The gel was stained with SYBR gold (Thermo) and visualized under UV light.
On the technique in general: A gel shift assay detects complexes by their altered migration in electrophoresis.

For the next test, the target named is T4, EcB (Escherichia coli, UniProt P0AES6).
T4 construct: made in house
As to the kind of experiment: Microscale thermophoresis binding to EcB. The settings on record: 1:1 binding model, 100 nM labeled protein, 5% DMSO, room temperature; read-out: Kd for EcB (MST). The method, then:
(§4) Microscale thermophoresis (MST) experiments were performed using a Monolith NT.115 instrument (NanoTemper). Proteins (PfB and EcB) were labeled with Red 2nd Generation labeling kits (NanoTemper) in which the fluorescent red dye was coupled with protein via NHS coupling. Labeled protein (100 nM) was mixed with PPG (Activate Scientific, dissolved in DMSO to a final concentration of 5%) and in MST buffer {240 mM NaPi (pH 7.4), 274 mM NaCl, 54 mM KCl, 100 μM TCEP [Tris(2-carboxyethyl)phosphine hydrochloride], 0.05% Tween 20, 5% DMSO} and incubated in the dark for 15 min. The samples were applied onto capillaries (Monolith NT.115 MST Premium coated capillaries), and the fluorescence signal was measured using MO.Control software (Nanotemper). Initial fluorescence signal was used for binding analysis, and Kd was calculated using 1:1 binding model. Results were baseline corrected and normalized for amplitude using MO.Control software (Nanotemper). The Kd values were calculated based on three independent measurements. All experiments were performed at room temperature.
(MST reads how a fluorescent partner responds to local heating, with and without ligand.)

In test [8] the target is T3, PfB. The test can be described thus: EMSA DNA binding, PfB. The settings on record: 147 bp DNA, 1 μM PfB. The method, then: as §3
Test [9] deals with T2, EcGyr. As to the kind of experiment: EMSA DNA binding, EcGyr. The conditions noted are these: 147 bp DNA, 200 nM complex. The method, then: as §3
Test [10] concerns the target T1, EcA2PfB2. The test can be described thus: DNA cleavage assay. The test is classed as biochemical, Plasmodium falciparum GyrB with Escherichia coli GyrA. The settings on record: 150 nM EcA2PfB2, supercoiled DNA, no ATP. The method, then: 22 The purified proteins (2 µg) were subjected to a 10% SDS PAGE and resolved by
23 electrophoresis at 180 V for 40 minutes. The protein bands were visualized by Coommassie
26 The DNA cleavage assay was performed in the same buffer conditions as for
27 supercoiling but ATP was omitted and supercoiled DNA was used instead of relaxed DNA.
28 EcA2PfB2 complex (150 nM) was incubated with 0.5 µg of supercoiled DNA in the
29 absence/presence of inhibitors for 60 min at 37 °C. In order to monitor the production of
30 linearized DNA, protein was removed by addition of 3 µl of 2% SDS and 1 µl of proteinase K
31 (>700 U) followed by further incubation at 37 °C for 30 min. The DNA was then extracted and
32 resolved in gel electrophoresis as described.

Test [11] has as its target T1, EcA2PfB2. The test can be described thus: ATP hydrolysis assay (malachite green), hybrid gyrase. It is filed as biochemical, Plasmodium falciparum GyrB with Escherichia coli GyrA. On the procedure:
as §2, with “Enzyme was incubated in the assay buffer (50 mM Tris-HCl [pH 7.5], 125 mM KCl, 1 mM EDTA, 5 mM MgCl2, 5 mM DTT, 10% glycerol) with test compounds at various concentrations, 1 mM ATP, and 10.5 nM linear pBR322 DNA for 30 min at room temperature.” left out

For test [12], the target named is T3, PfB. The test can be described thus: Microscale thermophoresis binding to PfB. On the procedure: as §4

SMILES strings stand for the structures. Where two headings read alike, the source gives them in different places. Where only a bound is given, the exact number is not on record here.

In general, IC50 refers to the point on the concentration scale where inhibition reaches its midpoint. For `O=C1c2ccccc2C(=O)c2c1cc(S(=O)(=O)O)c(O)c2O` [ARS, 1,2-dihydroxy-3-(oxysulfonyl)-9,10-anthracenedione], the concentration for half-maximal inhibition (IC50) on EcA2PfB2 [1] was 55.6 ± 6.74 µM; on EcGyr [2], greater than 100 µM.

`O=C(O)c1cn(C2CC2)c2cc(N3CCNCC3)c(F)cc2c1=O` [CIP, ciprofloxacin, reference compound]: on EcA2PfB2 [1], the “Sensitivity of hybrid complex to known bacterial gyrase inhibitors” value is given as “sensitive”. Also, the IC50 with P. falciparum 3D7 [3] was 3000 ± 500 nM.

Take `CO[C@@H]1[C@@H](OC(N)=O)[C@@H](O)[C@H](Oc2ccc3c(O)c(NC(=O)c4ccc(O)c(CC=C(C)C)c4)c(=O)oc3c2C)OC1(C)C` [Novobiocin, reference compound]: at EcA2PfB2 [1], the “Sensitivity of hybrid complex to known bacterial gyrase inhibitors” value is recorded as “sensitive”.

A word on the Kd: it is the concentration at which binding is half-saturated. For the molecule `O=c1c(O)cccc2cc(O)c(O)c(O)c12` [PPG, 3,9,10,11-tetrahydroxybicyclo[5.4.0]undeca-1(7),3,5,8,10-pentaen-2-one], the IC50 at EcA2PfB2 [1] was 9.56 ± 1.94 µM; in the test with P. falciparum 3D7 [5] it was 92 ± 16 µM; on EcGyr [2], greater than 1000 µM. Besides, at PfB [4] (10.5 nM linear pBR322 DNA, 1 mM ATP), the “Effect on DNA-enhanced ATP hydrolysis of PfB” value is “decreased this DNA-enhanced ATP hydrolysis of PfB in a dose-dependent manner”. For the same molecule, at PfB [4] (no DNA), the “Effect on intrinsic ATPase activity of PfB” value is listed as “remained unchanged”. Moreover, the “Effect on intrinsic and enhanced ATP hydrolysis by EcB in complex with EcA” value on EcGyr [6] is recorded as “little affected”. In addition, the “PPG concentration at which the DNA-EcA2PfB2 complex was disrupted” value on EcA2PfB2 [7] is 10 µM. In addition, the Kd at EcB is roughly 4.54 µM; at PfB [12] it was roughly 1030 nM. Besides, at PfB [8], the “PPG concentration at which formation of the DNA-PfB complex was inhibited” value is reported as “approximately 20 μM”. For the same molecule, the “Effect on DNA-EcGyr complex” value on EcGyr [9] is given as “remained intact”. Moreover, on EcA2PfB2 [10], the “Linear DNA formation (cleavage complex stabilization)” value is recorded as “did not observe any linear DNA formation”. In addition, the “Effect on ATPase activity of EcA2PfB2 in the absence of DNA” value on EcA2PfB2 [11] (0.5 μM EcA2PfB2) was “decreased the ATPase activity in both the absence and presence of DNA”. Further, on EcA2PfB2 [11] (0.5 μM EcA2PfB2, with DNA), the “Effect on DNA-induced ATPase activity of EcA2PfB2” value is “inhibited the DNA-induced ATPase activity of EcA2PfB2, although this was more modest”.

The record behind these values is paper PMC8448092, “Inhibitory Compounds Targeting Plasmodium falciparum Gyrase B” (Antimicrobial Agents and Chemotherapy, 2021).
